Test results published in ChEMBL document CHEMBL4840351 (J Med Chem, 2021).

What was measured:
[1] = target: Tyrosine-protein kinase BTK (Homo sapiens, UniProt Q06187); assay: Inhibition of full-length N-terminal GST tagged BTK (2 to 659 residues) (unknown origin) expressed in Sf21 insect cells using NH2-ETVYSEVRK-biotin as substrate preincubated for 1 hr followed by ATP addition and measured after 2 hrs by ELISA
[2] = target: T1, Tyrosine-protein kinase ITK/TSK (Homo sapiens, UniProt Q08881); assay: Inhibition of full-length N-terminal GST-tagged ITK (2 to 620 residues) (unknown origin) expressed in Sf21 insect cells using NH2-ETVYSEVRK-biotin as substrate preincubated for 1 hr followed by ATP addition and measured after 2 hrs by ELISA
T1 sequence (Q08881 whole entry): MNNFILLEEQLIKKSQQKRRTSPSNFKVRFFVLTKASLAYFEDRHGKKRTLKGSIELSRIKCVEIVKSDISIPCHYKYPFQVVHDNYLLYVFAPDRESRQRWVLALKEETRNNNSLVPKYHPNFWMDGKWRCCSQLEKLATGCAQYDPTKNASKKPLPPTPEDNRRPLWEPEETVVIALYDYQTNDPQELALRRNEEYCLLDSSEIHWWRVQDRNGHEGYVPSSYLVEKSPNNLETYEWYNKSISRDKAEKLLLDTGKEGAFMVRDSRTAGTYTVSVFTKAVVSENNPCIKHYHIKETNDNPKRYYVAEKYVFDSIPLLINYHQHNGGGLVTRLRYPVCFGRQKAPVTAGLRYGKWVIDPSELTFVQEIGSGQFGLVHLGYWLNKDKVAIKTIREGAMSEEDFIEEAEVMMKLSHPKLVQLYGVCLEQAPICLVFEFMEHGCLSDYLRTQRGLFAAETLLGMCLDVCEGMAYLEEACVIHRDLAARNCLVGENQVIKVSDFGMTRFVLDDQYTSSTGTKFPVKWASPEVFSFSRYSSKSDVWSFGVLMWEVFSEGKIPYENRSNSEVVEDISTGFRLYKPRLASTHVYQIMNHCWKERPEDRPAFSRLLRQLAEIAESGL

[3] = target: Epidermal growth factor receptor (Homo sapiens, UniProt P00533); assay: Inhibition of N-terminal DYKDDDD-tagged EGFR (669 to 1210 residues) (unknown origin) expressed in Sf21 insect cells using NH2-ETVYSEVRK-biotin as substrate preincubated for 1 hr followed by ATP addition and measured after 2 hrs by ELISA
Chain of Epidermal growth factor receptor (P00533 whole entry, the tested form may be a part): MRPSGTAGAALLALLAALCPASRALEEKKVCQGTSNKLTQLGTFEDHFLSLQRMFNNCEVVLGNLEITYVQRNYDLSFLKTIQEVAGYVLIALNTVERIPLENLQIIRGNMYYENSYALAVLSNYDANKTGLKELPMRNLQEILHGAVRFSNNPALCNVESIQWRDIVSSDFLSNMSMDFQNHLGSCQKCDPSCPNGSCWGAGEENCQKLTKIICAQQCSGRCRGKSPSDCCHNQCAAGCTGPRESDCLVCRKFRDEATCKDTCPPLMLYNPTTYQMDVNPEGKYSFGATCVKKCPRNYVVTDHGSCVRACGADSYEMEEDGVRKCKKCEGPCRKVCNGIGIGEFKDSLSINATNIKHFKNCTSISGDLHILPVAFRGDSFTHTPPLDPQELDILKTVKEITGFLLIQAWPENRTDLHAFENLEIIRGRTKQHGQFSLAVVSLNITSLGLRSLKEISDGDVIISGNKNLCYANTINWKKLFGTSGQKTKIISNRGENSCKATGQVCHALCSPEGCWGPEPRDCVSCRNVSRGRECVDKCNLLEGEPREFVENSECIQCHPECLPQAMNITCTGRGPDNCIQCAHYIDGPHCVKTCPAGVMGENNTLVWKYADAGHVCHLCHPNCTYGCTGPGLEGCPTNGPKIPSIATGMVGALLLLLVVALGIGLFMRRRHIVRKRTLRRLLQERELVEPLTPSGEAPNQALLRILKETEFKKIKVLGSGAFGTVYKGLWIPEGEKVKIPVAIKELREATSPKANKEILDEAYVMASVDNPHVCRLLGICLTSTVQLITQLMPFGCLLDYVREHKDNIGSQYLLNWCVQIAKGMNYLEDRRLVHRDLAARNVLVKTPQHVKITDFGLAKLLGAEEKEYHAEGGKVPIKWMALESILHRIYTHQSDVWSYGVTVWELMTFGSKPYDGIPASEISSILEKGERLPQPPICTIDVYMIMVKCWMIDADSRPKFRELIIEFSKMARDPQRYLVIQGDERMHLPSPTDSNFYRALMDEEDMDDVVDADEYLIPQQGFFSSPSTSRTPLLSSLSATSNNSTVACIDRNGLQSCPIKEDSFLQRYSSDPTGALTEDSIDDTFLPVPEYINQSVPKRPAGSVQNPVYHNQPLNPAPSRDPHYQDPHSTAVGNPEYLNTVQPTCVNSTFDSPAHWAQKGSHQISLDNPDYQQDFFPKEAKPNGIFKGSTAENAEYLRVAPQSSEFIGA

[4] = Cmax in ICR mouse at 15 mg/kg, po after 24 hrs; assay type: ADME, organism-based; set-up: route oral, time 24 hrs, dose 15 mg/kg; conditions: in vivo
[5] = Receptor occupancy at BTK in spleen of ICR mouse at 15 mg/kg, po after 24 hrs by ELISA; assay type: functional
Ramos = assay: Antiproliferative activity against human Ramos cells assessed as reduction in cell viability incubated for 72 hrs by celltiter-glo assay
MOLM-13 = assay: Antiproliferative activity against human MOLM-13 cells assessed as reduction in cell viability incubated for 72 hrs by celltiter-glo assay; conditions: MOLM-13, 72 h
TMD8 [6] = assay: Antiproliferative activity against human TMD8 cells assessed as reduction in cell viability incubated for 72 hrs by celltiter-glo assay; conditions: TMD8, 72 h
Rec1 = assay: Antiproliferative activity against human REC-1 cells assessed as reduction in cell viability incubated for 72 hrs by celltiter-glo assay; conditions: Rec1, 72 h
Raji = assay: Antiproliferative activity against human Raji cells assessed as reduction in cell viability incubated for 72 hrs by celltiter-glo assay
NAMALVA = assay: Antiproliferative activity against human NAMALWA cells assessed as reduction in cell viability incubated for 72 hrs by celltiter-glo assay
SU-DHL-2 = assay: Antiproliferative activity against human SUDHL2 cells assessed as reduction in cell viability incubated for 72 hrs by celltiter-glo assay; conditions: SU-DHL-2, 72 h
Pfeiffer = assay: Antiproliferative activity against human Pfeiffer cells assessed as reduction in cell viability incubated for 72 hrs by celltiter-glo assay
TMD8 [7] = assay: Antitumor activity against human TMD8 cells xenografted in CB-17 SCID nude mouse assessed as tumor growth inhibition at 7.5 mg/kg, po bid administered for 21 days; assay type: functional; conditions: 504 h, time 21 day, read-out: TGI
TMD8 [8] = assay: Induction of cell cycle arrest in human TMD8 cells assessed as accumulation of cells at G1 phase at 3 nM incubated for 48 hrs by PI staining based flow cytometric analysis (reference value: 57.66 %); assay type: functional
TMD8 [9] = assay: Induction of cell cycle arrest in human TMD8 cells assessed as accumulation of cells at S phase at 3 nM incubated for 48 hrs by PI staining based flow cytometric analysis (reference value: 37.42 %); assay type: functional
TMD8 [10] = assay: Induction of cell cycle arrest in human TMD8 cells assessed as accumulation of cells at G2 phase at 3 nM incubated for 48 hrs by PI staining based flow cytometric analysis (reference value: 4.92 %); assay type: functional
TMD8 [11] = assay: Induction of cell cycle arrest in human TMD8 cells assessed as accumulation of cells at G1 phase at 30 nM incubated for 48 hrs by PI staining based flow cytometric analysis (reference value: 57.66 %); assay type: functional
TMD8 [12] = assay: Induction of cell cycle arrest in human TMD8 cells assessed as accumulation of cells at S phase at 30 nM incubated for 48 hrs by PI staining based flow cytometric analysis (reference value: 37.42 %); assay type: functional
TMD8 [13] = assay: Induction of cell cycle arrest in human TMD8 cells assessed as accumulation of cells at G2 phase at 30 nM incubated for 48 hrs by PI staining based flow cytometric analysis (reference value: 4.92 %); assay type: functional
TMD8 [14] = assay: Induction of cell cycle arrest in human TMD8 cells assessed as accumulation of cells at G1 phase at 300 nM incubated for 48 hrs by PI staining based flow cytometric analysis (reference value: 57.66 %); assay type: functional
TMD8 [15] = assay: Induction of cell cycle arrest in human TMD8 cells assessed as accumulation of cells at S phase at 300 nM incubated for 48 hrs by PI staining based flow cytometric analysis (reference value: 37.42 %); assay type: functional
TMD8 [16] = assay: Induction of cell cycle arrest in human TMD8 cells assessed as accumulation of cells at G2 phase at 300 nM incubated for 48 hrs by PI staining based flow cytometric analysis (reference value: 4.92 %); assay type: functional
TMD8 [17] = assay: Induction of apoptosis in human TMD8 cells at 30 nM incubated for 72 hrs by Annexin V-FITC/PI staining based flow cytometric analysis (reference value: 13.4 %); assay type: functional
TMD8 [18] = assay: Induction of apoptosis in human TMD8 cells at 300 nM incubated for 72 hrs by Annexin V-FITC/PI staining based flow cytometric analysis (reference value: 13.4 %); assay type: functional
TMD8 [19] = assay: Induction of apoptosis in human TMD8 cells at 3000 nM incubated for 72 hrs by Annexin V-FITC/PI staining based flow cytometric analysis (reference value: 13.4 %); assay type: functional

Chain of Tyrosine-protein kinase BTK (Q06187 whole entry, the tested form may be a part): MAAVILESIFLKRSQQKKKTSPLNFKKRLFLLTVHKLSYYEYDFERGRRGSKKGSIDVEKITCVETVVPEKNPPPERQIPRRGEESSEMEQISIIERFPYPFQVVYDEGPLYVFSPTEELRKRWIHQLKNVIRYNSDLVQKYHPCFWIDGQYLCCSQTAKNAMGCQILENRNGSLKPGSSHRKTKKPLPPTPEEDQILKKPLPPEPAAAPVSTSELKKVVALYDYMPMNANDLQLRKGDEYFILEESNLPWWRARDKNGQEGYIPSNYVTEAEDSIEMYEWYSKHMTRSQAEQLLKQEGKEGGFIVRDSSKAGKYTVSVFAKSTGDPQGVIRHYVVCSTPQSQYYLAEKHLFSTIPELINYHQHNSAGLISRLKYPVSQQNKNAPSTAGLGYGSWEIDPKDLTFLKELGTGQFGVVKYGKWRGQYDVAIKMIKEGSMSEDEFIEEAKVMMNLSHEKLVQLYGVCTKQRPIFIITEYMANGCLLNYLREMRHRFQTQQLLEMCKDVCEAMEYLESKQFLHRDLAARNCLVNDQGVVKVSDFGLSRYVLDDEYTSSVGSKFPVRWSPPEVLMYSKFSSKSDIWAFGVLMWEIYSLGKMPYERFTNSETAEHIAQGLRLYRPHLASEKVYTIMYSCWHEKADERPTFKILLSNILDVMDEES

SMILES: C=CC(=O)N1CCCC[C@H]1c1nc(-c2ccc(C(=O)Nc3cc(CC)ccn3)cc2)c(C(N)=O)n1N
- IC50 [1]: 11.3 nM

SMILES: C=CC(=O)N1CCCC[C@H]1c1nc(-c2ccc(C(=O)Nc3cc(-c4ccc(F)cc4)ccn3)cc2)c(C(N)=O)n1N
- IC50 [2]: 6060 nM
- IC50 [3]: 113 nM

SMILES: C=CC(=O)N1CCC[C@H]1c1nc(-c2ccc(C(=O)Nc3cc(CC)ccn3)cc2)c(C(N)=O)n1N
- IC50 [1]: 39.3 nM

SMILES: CC#CC(=O)N1CCCC[C@H]1c1nc(-c2ccc(C(=O)Nc3cc(-c4ccccc4)ccn3)cc2)c(C(N)=O)n1N
- IC50 [2]: > 30000 nM
- IC50 [3]: 16800 nM

SMILES: CC#CC(=O)N1CCC[C@H]1c1nc(-c2ccc(C(=O)Nc3ccccn3)cc2)c2c(N)nccn12 [ACALABRUTINIB]
- Cmax [4]: 780 nM
- Occ [5]: 44%
- IC50 (Ramos): 31300 nM
- IC50 (MOLM-13): 358000 nM
- IC50 (TMD8 [6]): 24 nM
- IC50 (Rec1): 13 nM
- IC50 (Raji): > 10000 nM
- IC50 (NAMALVA): > 10000 nM
- IC50 (SU-DHL-2): > 10000 nM
- IC50 (Pfeiffer): > 10000 nM
- inhibition in vivo at 7.5 mg/kg (TMD8 [7]): 91%

SMILES: C/C=C/C(=O)N1CCCC[C@H]1c1nc(-c2ccc(C(=O)Nc3cc(CC)ccn3)cc2)c(C(N)=O)n1N
- IC50 [1]: > 10000 nM

SMILES: C=CC(=O)N1CCCC[C@H]1c1nc(-c2ccc(C(=O)Nc3cc(-c4ccccc4)ccn3)cc2)c(C(N)=O)n1N
- IC50 [2]: 2210 nM
- IC50 [3]: 79.4 nM

SMILES: C=CC(=O)N1CCCC[C@H]1c1nc(-c2ccc(C(=O)Nc3cc(C#N)ccn3)cc2)c(C(N)=O)n1N
- IC50 [1]: 17.1 nM

SMILES: CC#CC(=O)N1CCCC[C@H]1c1nc(-c2ccc(C(=O)Nc3cc(Cl)ccn3)cc2)c(C(N)=O)n1N
- IC50 [2]: > 30000 nM
- IC50 [3]: > 30000 nM

SMILES: CCC(=O)N1CCCC[C@H]1c1nc(-c2ccc(C(=O)Nc3cc(C(F)(F)F)ccn3)cc2)c(C(N)=O)n1N
- IC50 [1]: 4750 nM

SMILES: C=CC(=O)N1CCCC[C@H]1c1nc(-c2ccc(C(=O)Nc3cc(Br)ccn3)cc2)c(C(N)=O)n1N
- IC50 [2]: 15300 nM
- IC50 [3]: 578 nM

SMILES: CC/C=C/C(=O)N1CCCC[C@H]1c1nc(-c2ccc(C(=O)Nc3cc(CC)ccn3)cc2)c(C(N)=O)n1N
- IC50 [1]: > 10000 nM

SMILES: CC#CC(=O)N1CCCC[C@H]1c1nc(-c2ccc(C(=O)Nc3cc(C(F)(F)F)ccn3)cc2)c(C(N)=O)n1N
- IC50 [2]: > 30000 nM
- IC50 (Ramos): 770 nM
- IC50 (MOLM-13): 730 nM
- IC50 (TMD8 [6]): 54 nM
- Activity (TMD8 [8]): 54.63%
- Activity (TMD8 [9]): 41.28%
- Activity (TMD8 [10]): 4.09%
- Activity (TMD8 [11]): 67.44%
- Activity (TMD8 [12]): 27.8%
- Activity (TMD8 [13]): 4.76%
- Activity (TMD8 [14]): 94.86%
- Activity (TMD8 [15]): 1.96%
- Activity (TMD8 [16]): 3.18%
- Activity (TMD8 [17]): 14.1%
- Activity (TMD8 [18]): 36.8%
- Activity (TMD8 [19]): 81.3%

SMILES: C=CC(=O)N1CCCC[C@H]1c1nc(-c2ccc(C(=O)Nc3cc(-c4ccc(Cl)cc4)ccn3)cc2)c(C(N)=O)n1N
- IC50 [2]: 1920 nM
- IC50 [3]: 12.6 nM

SMILES: C=CC(=O)N1CCCC[C@H]1c1nc(-c2ccc(C(=O)Nc3cc(OC)ccn3)cc2)c(C(N)=O)n1N
- IC50 [2]: > 30000 nM
- IC50 [3]: 450 nM

SMILES: C=CC(=O)N1CCCC[C@H]1c1nc(-c2ccc(C(=O)Nc3cccnc3)cc2)c(C(N)=O)n1N
- IC50 [1]: > 10000 nM

SMILES: C=CC(=O)N1CCCC[C@H]1c1nc(-c2ccc(C(=O)Nc3cc(Cl)ccn3)cc2)c(C(N)=O)n1N
- IC50 [2]: 29500 nM
- IC50 [3]: 176 nM

SMILES: C#CC(=O)N1CCCC[C@H]1c1nc(-c2ccc(C(=O)Nc3cc(CC)ccn3)cc2)c(C(N)=O)n1N
- IC50 [1]: 10 nM

SMILES: C=CC(=O)N1CCCC[C@H]1c1nc(-c2ccc(C(=O)Nc3cc(C(F)(F)F)ccn3)cc2)c(C(=O)OCC)n1N
- IC50 [1]: 5160 nM

SMILES: C=C(C)C(=O)N1CCCC[C@H]1c1nc(-c2ccc(C(=O)Nc3cc(CC)ccn3)cc2)c(C(N)=O)n1N
- IC50 [1]: > 10000 nM

SMILES: CCc1ccnc(NC(=O)c2ccc(-c3nc([C@@H]4CCCCN4C(=O)/C(C#N)=C/C4CC4)n(N)c3C(N)=O)cc2)c1
- IC50 [1]: > 10000 nM

SMILES: C=CC(=O)N1CCCC[C@H]1c1nc(-c2ccc(C(=O)Nc3ccccc3)cc2)c(C(N)=O)n1N
- IC50 [1]: 571 nM

SMILES: C=CC(=O)N1CCCCC[C@H]1c1nc(-c2ccc(C(=O)Nc3cc(CC)ccn3)cc2)c(C(N)=O)n1N
- IC50 [1]: 226 nM

SMILES: CCc1ccnc(NC(=O)c2ccc(-c3nc([C@@H]4CCCCN4C(=O)/C(C#N)=C/C(C)C)n(N)c3C(N)=O)cc2)c1
- IC50 [1]: > 10000 nM

SMILES: C=CC(=O)N1CCC[C@@H](n2nc(-c3ccc(Oc4ccccc4)cc3)c3c(N)ncnc32)C1 [IBRUTINIB]
- inhibition in vivo at 7.5 mg/kg (TMD8 [7]): 99%

SMILES: CCc1ccnc(NC(=O)c2ccc(-c3nc([C@@H]4CCCCN4C(=O)C=C(C)C)n(N)c3C(N)=O)cc2)c1
- IC50 [1]: > 10000 nM

SMILES: C=CC(=O)N1CCC[C@@H](c2nc(-c3ccc(C(=O)Nc4cc(CC)ccn4)cc3)c(C(N)=O)n2N)C1
- IC50 [1]: 18.9 nM
